Results from PubChem BioAssay (NCI).
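How tested: cells in 96-well plates exposed to compound for 48 hours at five concentrations. TGI: concentration producing complete growth inhibition.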

Columns and labels:
Experiment in all cases: NCI tumour cell line growth inhibition, 48 h
[1] = tested on: A498 renal
[2] = tested on: HOP-92 NSCLC
[3] = tested on: P388 leukemia
[4] = tested on: RPMI-8226 leukemia
[5] = tested on: HCT-15 colon
[6] = tested on: KM20L2 colon
[7] = tested on: DMS 114 small cell lung
[8] = tested on: UACC-257 melanoma
[9] = tested on: OVCAR-4 ovarian
[10] = tested on: HT29 colon
[11] = tested on: SF-539 CNS
[12] = tested on: XF 498 CNS
[13] = tested on: SK-MEL-5 melanoma
[14] = tested on: MCF7 breast
[15] = tested on: HL-60(TB) leukemia
[16] = tested on: OVCAR-5 ovarian
[17] = tested on: MALME-3M melanoma
[18] = tested on: M19-MEL melanoma
[19] = tested on: SNB-19 CNS
[20] = tested on: CAKI-1 renal
[21] = tested on: OVCAR-3 ovarian
[22] = tested on: NCI/ADR-RES ovarian
[23] = tested on: NCI-H23 lung
[24] = tested on: NCI-H460 lung
[25] = tested on: SNB-75 CNS
[26] = tested on: EKVX NSCLC
[27] = tested on: SN12C renal
[28] = tested on: NCI-H226 lung
[29] = tested on: RXF 393 renal
[30] = tested on: HCC-2998 colon
[31] = tested on: HOP-18 NSCLC
[32] = tested on: UACC-62 melanoma
[33] = tested on: SK-OV-3 ovarian
[34] = tested on: A549 NSCLC
[35] = tested on: UO-31 renal
[36] = tested on: K-562 leukemia
[37] = tested on: HCT-116 colon
[38] = tested on: SN12K1 renal
[39] = tested on: SF-295 CNS
[40] = tested on: NCI-H522 lung
[41] = tested on: SK-MEL-2 melanoma
[42] = tested on: COLO 205 colon
[43] = tested on: OVCAR-8 ovarian
[44] = tested on: MOLT-4 leukemia
[45] = tested on: SK-MEL-28 melanoma
[46] = tested on: SF-268 CNS
[47] = tested on: SNB-78 CNS
[48] = tested on: SW-620 colon
[49] = tested on: DLD-1 colon
[50] = tested on: CCRF-CEM leukemia
[51] = tested on: HOP-62 NSCLC
[52] = tested on: DMS 273 small cell lung
[53] = tested on: IGROV1 ovarian
[54] = tested on: P388/ADR leukemia
[55] = tested on: KM12 colon
[56] = tested on: LOX IMVI melanoma
[57] = tested on: U251 CNS
[58] = tested on: 786-0 renal
[59] = tested on: TK-10 renal
[60] = tested on: RXF-631 renal
[61] = tested on: SR leukemia
[62] = tested on: LXFL 529 NSCLC
[63] = tested on: M14 melanoma

Cc1nc(=O)n2c(c1C(=O)Nc1ccc(Cl)cc1)NCC2
TGI [1]: > 100 µM
TGI [2]: > 100 µM
TGI [3]: > 31.6 µM

O=C(O)c1cn2c3c(cc(N4CCN(CCO)CC4)cc3c1=O)SCC2
TGI [4]: > 100 µM
TGI [5]: > 100 µM
TGI [6]: > 100 µM
TGI [7]: > 100 µM
TGI [8]: > 100 µM
TGI [9]: > 100 µM
TGI [10]: > 100 µM
TGI [11]: > 100 µM
TGI [12]: 67.2 µM
TGI [13]: > 100 µM
TGI [14]: > 100 µM
TGI [15]: > 100 µM
TGI [1]: > 100 µM
TGI [16]: > 100 µM
TGI [17]: > 100 µM
TGI [18]: > 100 µM
TGI [19]: > 100 µM
TGI [20]: > 100 µM
TGI [21]: > 100 µM
TGI [22]: > 100 µM
TGI [23]: > 100 µM
TGI [24]: > 100 µM
TGI [25]: > 66.5 µM
TGI [26]: > 100 µM
TGI [27]: > 100 µM
TGI [28]: > 100 µM
TGI [2]: > 100 µM
TGI [29]: > 100 µM
TGI [30]: 93.3 µM
TGI [31]: > 100 µM
TGI [3]: > 100 µM
TGI [32]: > 100 µM
TGI [33]: > 100 µM
TGI [34]: > 100 µM
TGI [35]: > 100 µM
TGI [36]: > 100 µM
TGI [37]: > 100 µM
TGI [38]: > 100 µM
TGI [39]: > 100 µM
TGI [40]: 94.2 µM
TGI [41]: > 100 µM
TGI [42]: > 100 µM
TGI [43]: > 100 µM
TGI [44]: > 100 µM
TGI [45]: > 100 µM
TGI [46]: > 100 µM
TGI [47]: > 100 µM
TGI [48]: > 100 µM
TGI [49]: > 100 µM
TGI [50]: > 100 µM
TGI [51]: > 100 µM
TGI [52]: > 100 µM
TGI [53]: > 100 µM
TGI [54]: > 100 µM
TGI [55]: > 100 µM
TGI [56]: > 100 µM
TGI [57]: > 100 µM

COc1cc2c3c(c1OC)-c1c(ccc4c1OCO4)CC3(C#N)N(C(=O)c1ccccc1)CC2 (centres undefined)
TGI [4]: > 100 µM
TGI [5]: > 100 µM
TGI [6]: > 100 µM
TGI [7]: > 100 µM
TGI [8]: > 100 µM
TGI [9]: 59 µM
TGI [10]: > 100 µM
TGI [11]: > 100 µM
TGI [12]: 60.2 µM
TGI [13]: > 100 µM
TGI [15]: > 100 µM
TGI [1]: > 100 µM
TGI [16]: > 100 µM
TGI [58]: > 100 µM
TGI [17]: > 100 µM
TGI [18]: > 100 µM
TGI [19]: > 100 µM
TGI [20]: > 100 µM
TGI [59]: > 100 µM
TGI [60]: > 100 µM
TGI [21]: > 100 µM
TGI [23]: > 100 µM
TGI [61]: > 100 µM
TGI [24]: > 100 µM
TGI [25]: 49.4 µM
TGI [26]: > 100 µM
TGI [27]: > 100 µM
TGI [28]: > 100 µM
TGI [2]: 77.9 µM
TGI [29]: > 100 µM
TGI [62]: > 100 µM
TGI [32]: > 100 µM
TGI [33]: > 100 µM
TGI [34]: > 100 µM
TGI [35]: > 100 µM
TGI [36]: > 100 µM
TGI [37]: > 100 µM
TGI [39]: > 100 µM
TGI [40]: > 100 µM
TGI [42]: > 100 µM
TGI [43]: > 100 µM
TGI [44]: > 100 µM
TGI [46]: > 100 µM
TGI [63]: > 100 µM
TGI [47]: > 100 µM
TGI [48]: > 100 µM
TGI [49]: > 100 µM
TGI [50]: > 100 µM
TGI [51]: > 100 µM
TGI [52]: > 100 µM
TGI [53]: > 100 µM
TGI [55]: > 100 µM
TGI [56]: > 100 µM
TGI [57]: > 100 µM
